≈ marks a conversion by molar mass, not a printed value.
What was measured:
Escherichia coli [1] = test: Inhibition of transcription-translation process in Escherichia coli; type: functional
Acinetobacter baumannii = test: Antibacterial activity against Acinetobacter baumannii ARC 3495; type: functional
Klebsiella pneumoniae = test: Antibacterial activity against Klebsiella pneumoniae ATCC 700603; type: functional
Pseudomonas aeruginosa [2] = test: Antibacterial activity against Pseudomonas aeruginosa PAO1; type: functional
Pseudomonas aeruginosa [3] = test: Antibacterial activity against mexABCDXY-deficient Pseudomonas aeruginosa PAO1; type: functional
Escherichia coli [4] = test: microbe, parasite or virus in culture; settings: ATCC 25922
Description: Antibacterial activity against Escherichia coli ATCC 25922

Escherichia coli [5] = test: microbe, parasite or virus in culture; settings: ATCC 25922; remark: listed apart in the source
Description: Antibacterial activity against tolC-deficient Escherichia coli ATCC 25922

Compound | IC50 (Escherichia coli [1]; Escherichia coli) [µM] | MIC (Acinetobacter baumannii) [µg/mL] | MIC (Klebsiella pneumoniae) [µg/mL] | MIC (Pseudomonas aeruginosa [2]) [µg/mL] | MIC (Pseudomonas aeruginosa [3]) [µg/mL] | MIC (Escherichia coli [4]) [µg/mL] | MIC (Escherichia coli [5]) [µg/mL] | IC50 (Escherichia coli [1]) [µM]
CN(CC(=O)O)NC(=O)C[C@H](N)C[C@@H](O)CN [NEGAMYCIN] | 1.7 | 16 (≈ 64.4 µM) | 32 (≈ 129 µM) | 32 (≈ 129 µM) | 16 (≈ 64.4 µM) | 16 (≈ 64.4 µM) | 16 (≈ 64.4 µM) | –
GENTAMICIN | – | – | – | – | – | – | – | 0.4
CC(N)CCNC[C@H](O)C[C@@H](N)CC(=O)NN(C)CC(=O)O (stereo not given in full) | 3.4 | 64 (≈ 200 µM) | 64 (≈ 200 µM) | 128 (≈ 401 µM) | 64 (≈ 200 µM) | 64 (≈ 200 µM) | 64 (≈ 200 µM) | –
CN(CC(=O)O)NC(=O)C[C@H](N)C[C@@H](O)CNCCC(N)=O | 4 | > 256 | > 256 | > 256 | > 256 | > 256 | 256 (≈ 802 µM) | –
CN(CC(=O)O)NC(=O)C[C@@H](N)C[C@@H](O)CNCCCN | 2.8 | 32 (≈ 105 µM) | 64 (≈ 210 µM) | 128 (≈ 419 µM) | 128 (≈ 419 µM) | 128 (≈ 419 µM) | 128 (≈ 419 µM) | –
CC(CCN)NC[C@H](O)C[C@@H](N)CC(=O)NN(C)CC(=O)O (stereo not given in full) | 0.44 | 8 (≈ 25 µM) | 8 (≈ 25 µM) | 32 (≈ 100 µM) | 32 (≈ 100 µM) | 16 (≈ 50.1 µM) | 16 (≈ 50.1 µM) | –
CN(CC(=O)O)NC(=O)C[C@H](N)C[C@@H](F)CN | 2.9 | 128 (≈ 511 µM) | 64 (≈ 256 µM) | 128 (≈ 511 µM) | – | 64 (≈ 256 µM) | – | –
CN(CC(=O)O)NC(=O)C[C@H](N)[C@H](O)[C@@H](O)CN | 43 | > 256 | > 256 | > 256 | – | > 256 | – | –
CN(CC(=O)O)NC(=O)C[C@H](N)C[C@@H](O)CNC[C@@H](O)CN | 2.5 | 128 (≈ 398 µM) | 64 (≈ 199 µM) | 256 (≈ 797 µM) | 128 (≈ 398 µM) | 256 (≈ 797 µM) | 64 (≈ 199 µM) | –
CN(CC(=O)O)NC(=O)C[C@H](N)C[C@@H](O)CNCC(F)CN (stereo not given in full) | 3.6 | 256 (≈ 792 µM) | 128 (≈ 396 µM) | 256 (≈ 792 µM) | 128 (≈ 396 µM) | 256 (≈ 792 µM) | 128 (≈ 396 µM) | –
CN(C)CCCNC[C@H](O)C[C@@H](N)CC(=O)NN(C)CC(=O)O | 15 | 256 (≈ 768 µM) | 256 (≈ 768 µM) | > 256 | > 256 | > 256 | > 256 | –
CN(CC(=O)O)NC(=O)C[C@H](N)C[C@@H](O)CNCC1CCNC1 (stereo not given in full) | 3.3 | 64 (≈ 193 µM) | 128 (≈ 386 µM) | 256 (≈ 772 µM) | 128 (≈ 386 µM) | 256 (≈ 772 µM) | 256 (≈ 772 µM) | –

Further lines, with some results ahead:

IC50 (Escherichia coli [1]; Escherichia coli) [µM] | MIC (Acinetobacter baumannii) [µg/mL] | MIC (Klebsiella pneumoniae) [µg/mL] | MIC (Pseudomonas aeruginosa [2]) [µg/mL] | MIC (Pseudomonas aeruginosa [3]) [µg/mL] | MIC (Escherichia coli [4]) [µg/mL] | MIC (Escherichia coli [5]) [µg/mL] | Compound | IC50 (Escherichia coli [1]) [µM]
1.1 | 16 (≈ 50.1 µM) | 16 (≈ 50.1 µM) | 32 (≈ 100 µM) | 16 (≈ 50.1 µM) | 32 (≈ 100 µM) | 16 (≈ 50.1 µM) | CC(CN)CNC[C@H](O)C[C@@H](N)CC(=O)NN(C)CC(=O)O (stereo not given in full) | –
> 100 | > 256 | > 256 | > 256 | – | > 256 | – | CN(CC(=O)O)N(C)C(=O)C[C@H](N)C[C@@H](O)CN | –
12 | 128 (≈ 488 µM) | ≥ 256 | ≥ 256 | – | 128 (≈ 488 µM) | – | CC(C(=O)NN(C)CC(=O)O)[C@H](N)C[C@@H](O)CN (stereo not given in full) | –
10 | 32 (≈ 99.9 µM) | 64 (≈ 200 µM) | 128 (≈ 400 µM) | 128 (≈ 400 µM) | 128 (≈ 400 µM) | 128 (≈ 400 µM) | CN(CC(=O)O)NC(=O)C[C@H](N)C[C@@H](O)CNCC(N)CN (stereo not given in full) | –
0.74 | 16 (≈ 50.1 µM) | 16 (≈ 50.1 µM) | 128 (≈ 401 µM) | 64 (≈ 200 µM) | 32 (≈ 100 µM) | 32 (≈ 100 µM) | CN(CC(=O)O)NC(=O)C[C@H](N)C[C@@H](O)CNCCCCN | –
3.9 | 128 (≈ 403 µM) | 64 (≈ 202 µM) | 256 (≈ 807 µM) | 128 (≈ 403 µM) | 256 (≈ 807 µM) | 128 (≈ 403 µM) | CN(CC(=O)O)NC(=O)C[C@H](N)C[C@@H](O)CNCC1CNC1 | –
11 | > 256 | > 256 | > 256 | > 256 | > 256 | 256 (≈ 754 µM) | CN(CC(=O)O)NC(=O)C[C@H](N)C[C@@H](O)CNCc1ccccn1 | –
2.3 | 128 (≈ 435 µM) | 64 (≈ 217 µM) | > 256 | 256 (≈ 870 µM) | 64 (≈ 217 µM) | 128 (≈ 435 µM) | CN(CC(=O)O)NC(=O)C[C@H](N)C[C@@H](O)CNCCF | –
0.73 | 32 (≈ 99.6 µM) | 64 (≈ 199 µM) | 128 (≈ 398 µM) | 64 (≈ 199 µM) | 64 (≈ 199 µM) | 32 (≈ 99.6 µM) | CN(CC(=O)O)NC(=O)C[C@H](N)C[C@@H](O)CNC[C@H](O)CN | –
5.8 | 64 (≈ 200 µM) | 64 (≈ 200 µM) | 256 (≈ 801 µM) | 256 (≈ 801 µM) | 256 (≈ 801 µM) | 256 (≈ 801 µM) | CNCCCNC[C@H](O)C[C@@H](N)CC(=O)NN(C)CC(=O)O | –
78 | > 512 | > 512 | > 512 | – | > 512 | – | CN(CC(=O)O)NC(=O)C[C@H](N)C[C@@H](O)[C@H](N)CO | –

— ChEMBL document CHEMBL3621045, “Structural Insights Lead to a Negamycin Analogue with Improved Antimicrobial Activity against Gram-Negative Pathogens” (ACS Med Chem Lett, 2015)
